In paper PMC10800023 (Human Molecular Genetics, 2023):

Experiments:
[1] = tested on: P-gp (MDR1); assay: MDR1-MDCK permeability / P-gp efflux assay; settings: MDCK-MDR1, pH 7.4
Protocol: (§1) To measure transport by P-gp, Madin-Darby canine kidney (MDCK) cells that had been transfected with the human P-gp (MDR1) gene were plated in a Transwell plate and cultured until polarized. MDCK cells that are not transfected with human P-gp were used as a control. Compounds were added to either the apical or the basolateral side of the cells, and transport across the membrane was measured.
(§2) Testing for permeability and MDR1 substrate assessment was done in MDCK cells transfected to overexpress human MDR1 gene that encodes efflux transporter protein (P-gp). […] Briefly, cells were maintained in Dulbecco’s modified Eagle medium (DMEM) with 10% fetal bovine serum and 1% penicillin/streptomycin in a humidified incubator at 37°C with 5% CO2. The study was performed by Absorption Systems (now Pharmaron; Exton, PA). The MDR1-MDCK and MDCK control cell lines were seeded into 12-well plates for 7 days. Integrity of monolayer tight junctions was monitored preincubation by transepithelial electrical resistance (TEER) measurement. […] The samples were withdrawn at t = 0 and 60 min from the receiver and donor compartments. Compound levels were measured by LC/MS–MS. Additionally, post-assay, cell monolayer integrity was checked with Lucifer Yellow permeability measurement. Transport assay low- and high-permeability control compounds were run in parallel for assay validation. Papp values were calculated considering compound concentrations across the monolayer and cell surface area. Efflux ratios were calculated based on Papp B > A over Papp A > B. The difference between the MDR1-MDCK and the MDCK cell efflux ratios was also calculated. […] Compounds were classified by Absorption Systems/Pharmaron as follows: […]

[2] = tested on: human P-gp (MDR1); assay: MDR1-MDCK permeability / P-gp efflux assay; settings: for Differences between ratios: MDR1-MDCK minus MDCK efflux ratio; for brain penetration classification: 1 and 10 μM, from Papp (A-to-B) and efflux ratio
Protocol: as §1, §2

[3] = DBA/2 J, mouse, in vivo
Protocol: (§3) The brain-to-plasma ratio was then calculated using the area under the curve (AUC) for brain exposure and the AUC for plasma exposure.

[4] = Published PK data in patients; settings: in vivo, oral, human, 0.75 mg/kg, extrapolated assuming linear increase from the lower dose
Description: ^a Conklin […] JM, Hoffman EP, Jusko WJ, Mavroudis PD, Schwartz BD, […] LJ, Smith EC, Mah JK, Guglieri M, Nevo Y, Kuntz N, McDonald CM, Tulinius M, Ryan MM, Webster R, Castro D, Finkel RS, Smith AL, Morgenroth […], Jaros M, Shale […] JM, […], Ward […], Cornish MR, Clemens PR. […] Epub 2018 Sep 13. PMID: 30219580; PMCID: PMC6218284. […] Bashar T, Apu […]. […] Dose Response. 2018 Jul 25;16(3):1559325818783932. doi: 10.1177/1559325818783932. PMID: 30083083; PMCID: PMC6073839. ^c Assumed linear increase in AUC and Cmax from 0.25 to 0.75 mg/kg. This may be an overestimate. However, there is support for linearity in Al-Habet S, Rogers HJ. Pharmacokinetics of intravenous and oral prednisolone. Br J Clin Pharmacol. 1980 Nov;10(5):503-8. doi: 10.1111/j.1365-2125.1980.tb01796.x. PMID: 7437263; PMCID: PMC1430141. ^d https://www.accessdata.fda.gov/drugsatfda_docs/nda/2017/208684,208685[…]

[5] = tested on: C57BL/6 mice; assay: Tail-suspension test in WT mice after 35 days (Study 3); type: in vivo, mouse; settings: daily for 35 days, prednisolone 15 mg/kg or vamorolone 45 mg/kg
Protocol: In the CNS of these miceFkbp5 mRNA and Ddrd4 mRNA levels were increased (Supplementary Fig. S3d and e). Expression of FKBP5 is reported to be GRE regulated, and Drd4 is a reported biomarker of depression.
• 1) Force-swim test: Animals were single housed and acclimated in the behavior room for 30 min prior to test. A clean 1-L beaker was filled with 700 to 800 ml of 23°C water. Each mouse was placed into the water for 6 min. The total immobility time was recorded. After the test, the animals were dried and placed in a cage on a heating pad for about 10 min before returning to the home cages. • 2) Tail-suspension test: Isolated mice were suspended 50 cm above the floor by surgical tape placed approximately 1 cm from the tip of the tail for 6 min. The total immobility time of mice was measured. Mice were considered immobile only when they hung passively and completely motionless.

[6] = Pharmacokinetics and biodistribution in C57BL/10 mice
[7] = in vivo; settings: DBA/2 J, mouse, plasma, po
Protocol: as §3

[8] = tested on: C57BL/6 mice; assay: RT-qPCR of brain mRNA in WT mice (Study 3); settings: daily for 35 days, prednisolone 15 mg/kg or vamorolone 45 mg/kg
Protocol: RNA concentration was measured by using Cytation 5 (BioTek).

[9] = Pharmacokinetics and brain/plasma biodistribution in WT DBA/2 J mice
Protocol: as §3

[10] = cited from earlier work
[11] = in vivo; settings: C57BL/10, mouse, oral; for Kp: brain/plasma; for AUC / Cmax: plasma
[12] = tested on: MDCK cells; assay: MDCK control cell permeability (not transfected with human P-gp); settings: 1 μM
Protocol: as §1, §2

[13] = 30 mg/kg oral gavage, DBA/2 J mice

Which results are given for `CC(=O)OCC(=O)[C@@]12N=C(C)O[C@@H]1C[C@H]1[C@@H]3CCC4=CC(=O)C=C[C@]4(C)[C@H]3[C@@H](O)C[C@@]12C` [Deflazacort]?
Papp at 60 min [1]: < 3 ×10⁻⁶ cm/s; efflux ratio at 60 min, 1 μM [1]: 60.2; efflux ratio at 60 min, 10 μM [1]: 58.4; Basolateral to Apical MDR1-MDCK ([2]; 1 μM): 62.60 10 ^ −6 cm/s; Differences between ratios ([2]; 1 μM): 59; Apical to Basolateral MDR1-MDCK ([2]; 10 μM): 1.07 10 ^ −6 cm/s; Differences between ratios ([2]; 10 μM): 57; brain penetration classification [2]: low; Papp A→B at 60 min, 1 μM ([2]; dog, MDCK-MDR1, pH 7.4): 1.04 ×10⁻⁶ cm/s; Papp B→A at 60 min, 10 μM ([2]; dog, MDCK-MDR1, pH 7.4): 62.6 ×10⁻⁶ cm/s; predicted AUC in mice [3]: 446 ng·h/mL; predicted Cmax in mice [3]: 267.5 ng/mL

Which results are given for `C[C@]12C=CC(=O)C=C1CC[C@@H]1[C@@H]2[C@@H](O)C[C@@]2(C)[C@H]1CC[C@]2(O)C(=O)CO` [Prednisolone]?
Cmax [4]: ~705 ng/mL; AUC ([4]; read-out: AUC (Day 1)): ~7070 ng·h/mL; depression-like behavior as measured by the TST [5]: induced depression-like behavior

Which results are given for `C[C@@H]1C[C@H]2[C@@H]3CCC4=CC(=O)C=C[C@]4(C)C3=CC[C@]2(C)[C@@]1(O)C(=O)CO` [Vamorolone]?
depression-like behavior as measured by the TST [5]: induced depression-like behavior; Papp at 60 min [1]: > 3 ×10⁻⁶ cm/s; efflux ratio at 60 min, 1 μM [1]: 6.84; efflux ratio at 60 min, 10 μM [1]: 6.42; Differences between ratios ([2]; 1 μM): 6; Apical to Basolateral MDR1-MDCK ([2]; 10 μM): 8.73 10 ^ −6 cm/s; Differences between ratios ([2]; 10 μM): 6; brain penetration classification [2]: moderate; Papp A→B at 60 min, 1 μM ([2]; dog, MDCK-MDR1, pH 7.4): 7.99 ×10⁻⁶ cm/s; Papp B→A at 60 min, 1 μM ([2]; dog, MDCK-MDR1, pH 7.4): 54.7 ×10⁻⁶ cm/s; Papp B→A at 60 min, 10 μM ([2]; dog, MDCK-MDR1, pH 7.4): 56.1 ×10⁻⁶ cm/s; Brain AUC ([6]; 5 mg/kg): 1418 hr∙ng/g of tissue; Brain Cmax ([6]; 5 mg/kg): 443 ng/g of tissue; Brain/plasma ratio based on Cmax ([6]; 5 mg/kg): 0.54; Brain AUC ([6]; 30 mg/kg): 15538 hr∙ng/g of tissue; Brain Cmax ([6]; 30 mg/kg): 4402 ng/g of tissue; AUC ([7]; 15 mg/kg): 9350 ng·h/mL; Cmax ([7]; 15 mg/kg): 1980 ng/mL; AUC ([7]; 30 mg/kg): 26600 ng·h/mL; Cmax ([7]; 30 mg/kg): 2700 ng/mL; AUC ([7]; 45 mg/kg): 34100 ng·h/mL; Cmax ([7]; 45 mg/kg): 3470 ng/mL; Ddrd4 mRNA levels in the CNS [8]: increased; Fkbp5 mRNA levels in the CNS [8]: increased; Brain AUC [9, 13]: 8070 h∙ng/g of tissue; Brain Cmax [9, 13]: 1825 ng/g of tissue; Brain/plasma ratio based on AUC [9, 13]: ~0.30; Brain/plasma ratio based on Cmax [9, 13]: ~0.68; fold higher exposure in the mouse (based on Cmax) than human clinical exposure ([9]; 15, 30, and 45 mg/kg in mouse vs 6 mg/kg/day in human): 2–4 fold; Cmax ([9]; mouse (DBA), 30 mg/kg): 2700 ng/mL; reduction of serum osteocalcin levels ([10]; Phase 2A, subjects with DMD, 6 mg/kg/day, 14 days of dosing): ~ 33%; reduction of osteocalcin levels ([10]; Phase 2b 24-week study in DMD boys, 6 mg/kg): 0.17%; Kp ([11]; 5 mg/kg): 0.5; Kp ([11]; 30 mg/kg): 0.46; AUC ([11]; 5 mg/kg): 2850 ng·h/mL; Cmax ([11]; 5 mg/kg): 818 ng/mL; AUC ([11]; 30 mg/kg): 33900 ng·h/mL; Cmax ([11]; 30 mg/kg): 8790 ng/mL; Apical to Basolateral MDCK [12]: 33.4 10 ^ −6 cm/s
